Patent US20050250677A1, “Glycopeptide antibiotic derivatives” (priority 2002, published 2005)
Like-named read-outs stand apart in the source and are kept apart here.

Assays:
[1] = system: HIV-1 (IIIB); assay: Inhibition of HIV-1 (IIIB)-induced cytopathicity (giant cell formation) in CEM cells; type: cell-based; conditions: read-out: EC50 HIV-1 (concentration required to inhibit HIV-induced giant cell formation by 50%); HIV-1, CEM cell cultures
Experimental: (§1) A variety of glycopeptide antibiotic derivatives of vancomycin, eremomycin and teicoplanin including their aglycon derivatives were evaluated for their inhibitory activity against HIV-1 (IIIB) and HIV-2(ROD) in CEM cell cultures.

[2] = system: HIV-2(ROD); assay: Inhibition of HIV-2 (ROD)-induced cytopathicity (giant cell formation) in CEM cells; type: cell-based; conditions: read-out: EC50 HIV-2 (concentration required to inhibit HIV-induced giant cell formation by 50%); HIV-2, CEM cell cultures
Experimental: as §1

[3] = system: murine leukemia L1210; assay: Cytostatic activity assay, L1210 cells; type: cell-based; conditions: read-out: IC50 L1210 (compound concentration required to inhibit tumor cell proliferation by 50%)
[4] = system: human lymphocyte Molt4/clone 8; assay: Cytostatic activity assay, Molt4/clone 8 cells; type: cell-based; conditions: read-out: IC50 Molt4/C8 (compound concentration required to inhibit tumor cell proliferation by 50%)
[5] = system: human lymphocyte CEM; assay: Cytostatic activity assay, CEM cells; type: cell-based; conditions: read-out: IC50 CEM (compound concentration required to inhibit tumor cell proliferation by 50%)
[6] = system: VZV (wild-type strains); assay: Anti-VZV assay (wild-type strains): virus-induced cytopathicity in HEL cell cultures; type: cell-based, varicella-zoster virus; conditions: for EC50: HEL cell cultures
[7] = system: HEL cells; conditions: anti-VZV table
[8] = system: HEL cells; conditions: read-out: CC50 (HEL); HEL cells; anti-VZV table
[9] = VZV strain OKA, read-out: EC50 VZV (OKA)
[10] = VZV strain YS, read-out: EC50 VZV (YS)

| Compound | EC50 [1] | EC50 [2] | IC50 [3] | IC50 [4] | IC50 [5] | activity against VZV [6] | EC50 [6, 9] | EC50 [6, 10] | MTC (HEL) [7] | CC50 [8] |
| --- | --- | --- | --- | --- | --- | --- | --- | --- | --- | --- |
| CNC(=O)C1NC(=O)C2NC(=O)C(NC(=O)C3NC(=O)C(CC(N)=O)NC(=O)C(NC(=O)C(CC(C)C)NC)C(O)c4ccc(c(Cl)c4)Oc4cc3cc(c4O)Oc3ccc(cc3)C2O)c2ccc(O)c(c2)-c2c1cc(O)c(CN1CCN(Cc3ccc(-c4ccccc4)cc3)CC1)c2O (stereo not shown) [Compound 8] | 4 ± 1.7 µM | 5.5 ± 0.7 µM | > 100 µM | > 100 µM | > 100 µM | pronounced activity | 2.3 µM | 1.5 µM | ≧20 μM | > 50 µM |
| CNC1C(=O)NC2Cc3ccc(cc3)Oc3cc4cc(c3OC3OC(C(=O)NCCC[N+](C)(C)Cc5ccc(-c6ccccc6)cc5)C(O)C(O)C3N)Oc3ccc(cc3Cl)C(O)C3NC(=O)C(NC(=O)C4NC(=O)C(NC2=O)c2cc(cc(O)c2Cl)Oc2cc1ccc2O)c1ccc(O)c(c1)-c1c(OC2OC(CO)C(O)C(O)C2O)cc(O)cc1C(C(=O)NCCC[N+](C)(C)Cc1ccc(-c2ccccc2)cc1)NC3=O (stereo not shown) [Compound 10] | 4 ± 1.4 µM | > 10 µM | 44 ± 2.9 µM | 27 ± 14 µM | 32 ± 5 µM | – | – | – | – | – |
| CCCCOc1ccc(CNC2C(Oc3c4cc5cc3Oc3ccc(cc3Cl)C(O)C3NC(=O)C(NC(=O)C5NC(=O)C5NC(=O)C(Cc6ccc(cc6)O4)NC(=O)C(N(C)Cc4ccc(OCCCC)cc4)c4ccc(O)c(c4)Oc4cc(O)c(Cl)c5c4)c4ccc(O)c(c4)-c4c(O)cc(O)cc4C(C(=O)NCCCN(C)C)NC3=O)OC(C(=O)NCCCN(C)C)C(O)C2O)cc1 (stereo not shown) [Compound 11] | 5 ± 0.7 µM | > 10 µM | 20 ± 7.5 µM | 18 ± 2.5 µM | 80 ± 6 µM | – | – | – | – | – |
| CCCCc1ccc(CNC2C(Oc3c4cc5cc3Oc3ccc(cc3Cl)C(O)C3NC(=O)C(NC(=O)C5NC(=O)C5NC(=O)C(Cc6ccc(cc6)O4)NC(=O)C(NC)c4ccc(O)c(c4)Oc4cc(O)c(Cl)c5c4)c4ccc(O)c(c4)-c4c(O)cc(O)cc4C(C(=O)NCCCN(C)C)NC3=O)OC(C(=O)NCCCN(C)C)C(O)C2O)cc1 (stereo not shown) [Compound 12] | 12 ± 3.5 µM | > 50 µM | 36 ± 14 µM | 66 ± 20 µM | > 250 µM | – | – | – | – | – |
| CCCCCCCCCC[N+](C)(C)CCCNCc1c(O)cc2c(c1O)-c1cc(ccc1O)C1NC(=O)C3NC(=O)C4NC(=O)C(Cc5ccc(cc5)Oc5cc3cc(c5OC3OC(C(=O)NCCCN(C)C)C(O)C(O)C3N)Oc3ccc(cc3Cl)C(O)C(NC1=O)C(=O)NC2C(=O)NCCCN(C)C)NC(=O)C(NC)c1ccc(O)c(c1)Oc1cc(O)c(Cl)c4c1 (stereo not shown) [Compound 14] | 3.5 ± 0.7 µM | ≥ 20 µM | 27 ± 0.3 µM | 22 ± 4.7 µM | 92 ± 5 µM | – | – | – | – | – |
| CCCCCCCCCCNC(=O)C(N)CCCCNCc1c(O)cc2c(c1O)-c1cc(ccc1O)C1NC(=O)C3NC(=O)C4NC(=O)C(Cc5ccc(c(Cl)c5)Oc5cc3cc(c5O)Oc3ccc(cc3Cl)C(O)C(NC1=O)C(=O)NC2C(=O)NCCCN(C)C)NC(=O)C(N)c1ccc(O)c(c1)Oc1cc(O)cc4c1 (stereo not shown) [Compound 16] | 3.5 ± 0.7 µM | 5.5 ± 2.1 µM | 19 ± 5 µM | 76 ± 8 µM | 389 ± 99 µM | – | 2.5 µM | 2.4 µM | ≧5-50 μM | 137 µM |
| CCCCCCCCCCNCc1c(O)cc2c(c1O)-c1cc(ccc1O)C1NC(=O)C3NC(=O)C4NC(=O)C(Cc5ccc(c(Cl)c5)Oc5cc3cc(c5O)Oc3ccc(cc3Cl)C(O)C(NC1=O)C(=O)NC2C(=O)NCCCN1CCCCC1C)NC(=O)C(N)c1ccc(O)c(c1)Oc1cc(O)cc4c1 (stereo not shown) [Compound 22] | 1.3 ± 0.92 µM | 7 µM | 57 ± 15 µM | 182 ± 31 µM | 211 ± 1 µM | – | – | – | – | – |
| CCCCCCCCCCNC(=O)C(N)CCCCNC(=O)C1NC(=O)C2NC(=O)C(NC(=O)C3NC(=O)C4NC(=O)C(Cc5ccc(c(Cl)c5)Oc5cc3cc(c5O)Oc3ccc(cc3Cl)C2O)NC(=O)C(N)c2ccc(O)c(c2)Oc2cc(O)cc4c2)c2ccc(O)c(c2)-c2c(O)cc(O)cc21 (stereo not shown) [Compound 23] | 2.6 ± 2 µM | 5.5 ± 0.7 µM | 5.7 ± 0.27 µM | 22 ± 22 µM | 58 ± 35 µM | – | – | – | – | – |
| C[N+](C)(C)CCCNC(=O)C1NC(=O)C2NC(=O)C(NC(=O)C3NC(=O)C4NC(=O)C(Cc5ccc(c(Cl)c5)Oc5cc3cc(c5O)Oc3ccc(cc3Cl)C2O)NC(=O)C(N)c2ccc(O)c(c2)Oc2cc(O)cc4c2)c2ccc(O)c(c2)-c2c1cc(O)c(CN1CCN(Cc3ccc(-c4ccccc4)cc3)CC1)c2O (stereo not shown) [Compound 29] | 4.5 ± 0.7 µM | 22 ± 3.5 µM | 26 ± 8.1 µM | 35 ± 8.2 µM | > 250 µM | – | – | – | – | – |
| CCCCCCCCCC[N+](C)(C)CCCNCc1c(O)cc2c(c1O)-c1cc(ccc1O)C1NC(=O)C3NC(=O)C4NC(=O)C(Cc5ccc(c(Cl)c5)Oc5cc3cc(c5O)Oc3ccc(cc3Cl)C(O)C(NC1=O)C(=O)NC2C(=O)NCCCN(C)C)NC(=O)C(N)c1ccc(O)c(c1)Oc1cc(O)cc4c1 (stereo not shown) [Compound 34] | 2.7 ± 1.84 µM | 4.5 ± 0.7 µM | 23 ± 11 µM | 68 ± 1 µM | 50 ± 8 µM | – | – | – | – | – |
| CCCCCCCCCC[N+]1(C)CCN(Cc2c(O)cc3c(c2O)-c2cc(ccc2O)C2NC(=O)C4NC(=O)C5NC(=O)C(Cc6ccc(c(Cl)c6)Oc6cc4cc(c6O)Oc4ccc(cc4Cl)C(O)C(NC2=O)C(=O)NC3C(=O)NCCCN(C)C)NC(=O)C(N)c2ccc(O)c(c2)Oc2cc(O)cc5c2)CC1 (stereo not shown) [Compound 38] | 2.1 ± 0.92 µM | 10 µM | 51 ± 9 µM | 91 ± 13 µM | > 100 µM | – | – | – | – | – |
| CCCCCCCCCC[N+](C)(C)CCCNCc1c(O)cc2c(c1O)-c1cc(ccc1O)C1NC(=O)C3NC(=O)C4NC(=O)C(Cc5ccc(c(Cl)c5)Oc5cc3cc(c5O)Oc3ccc(cc3Cl)C(O)C(NC1=O)C(=O)NC2C(=O)NCCCCCCN)NC(=O)C(N)c1ccc(O)c(c1)Oc1cc(O)cc4c1 (stereo not shown) [Compound 42] | 1.8 ± 0.49 µM | 7 µM | 38 ± 1 µM | 72 ± 6 µM | 66 ± 2 µM | – | – | – | – | – |
| NCCCCCCCCCCNC(=O)C1NC(=O)C2NC(=O)C(NC(=O)C3NC(=O)C4NC(=O)C(Cc5ccc(c(Cl)c5)Oc5cc3cc(c5O)Oc3ccc(cc3Cl)C2O)NC(=O)C(N)c2ccc(O)c(c2)Oc2cc(O)cc4c2)c2ccc(O)c(c2)-c2c(O)cc(O)cc21 (stereo not shown) [Compound 43] | 6.5 ± 0.7 µM | 12.5 ± 3.5 µM | ≥ 500 µM | 225 ± 8 µM | 402 ± 138 µM | – | – | – | – | – |
| C[C@@H](NC(=O)[C@@H](C)NC(=O)CCCCCNC(=O)C1NC(=O)C2NC(=O)C(NC(=O)C3NC(=O)C4NC(=O)C(Cc5ccc(c(Cl)c5)Oc5cc3cc(c5O)Oc3ccc(cc3Cl)C2O)NC(=O)C(NC(=O)OC(C)(C)C)c2ccc(O)c(c2)Oc2cc(O)cc4c2)c2ccc(O)c(c2)-c2c(O)cc(O)cc21)C(=O)O (stereo partly shown) [Compound 44] | 12.5 ± 3.5 µM | 25 ± 7 µM | > 500 µM | > 500 µM | > 500 µM | – | – | – | – | – |
| CNCc1c(O)cc2c(c1O)-c1cc(ccc1O)C1NC(=O)C3NC(=O)C4NC(=O)C(Cc5ccc(c(Cl)c5)Oc5cc3cc(c5O)Oc3ccc(cc3Cl)C(O)C(NC1=O)C(=O)NC2C(=O)NC)NC(=O)C(N)c1ccc(O)c(c1)Oc1cc(O)cc4c1 (stereo not shown) [Compound 45] | 15 ± 7.1 µM | 17.5 ± 10.6 µM | > 500 µM | > 500 µM | > 500 µM | – | – | – | – | – |
| CCCCc1ccc(CNCc2c(O)cc3c(c2O)-c2cc(ccc2O)C2NC(=O)C4NC(=O)C5NC(=O)C(Cc6ccc(c(Cl)c6)Oc6cc4cc(c6O)Oc4ccc(cc4Cl)C(O)C(NC2=O)C(=O)NC3C(=O)NC)NC(=O)C(N)c2ccc(O)c(c2)Oc2cc(O)cc5c2)cc1 (stereo not shown) [Compound 48] | 9.7 ± 9 µM | 12.3 ± 6.8 µM | > 100 µM | > 100 µM | > 100 µM | – | – | – | – | – |
| O=C(NC1C(=O)NC2Cc3ccc(c(Cl)c3)Oc3cc4cc(c3O)Oc3ccc(cc3Cl)C(O)C3NC(=O)C(NC(=O)C4NC(=O)C(NC2=O)c2cc(O)cc(c2)Oc2cc1ccc2O)c1ccc(O)c(c1)-c1c(O)cc(O)cc1C(C(=O)O)NC3=O)OC12CC3CC(CC(C3)C1)C2 (stereo not shown) [Compound 49] | 13 ± 9.9 µM | 6 ± 1.4 µM | 22 ± 0.1 µM | 25 ± 0.99 µM | 104 ± 3 µM | – | – | – | – | – |
| CNC(CC(C)C)C(=O)NC1C(=O)NC(CC(N)=O)C(=O)NC2C(=O)NC3C(=O)NC(C(=O)NC(C(=O)O)c4cc(O)cc(O)c4-c4cc3ccc4O)C(O)c3ccc(cc3)Oc3cc2cc(c3O)Oc2ccc(cc2Cl)C1O (stereo not shown) [Eremomycin aglycon] | 50 ± 28 µM | 250 µM | > 500 µM | > 500 µM | > 500 µM | – | – | – | – | – |
| CN[C@H](CC(C)C)C(=O)N[C@H]1C(=O)N[C@@H](CC(N)=O)C(=O)N[C@H]2C(=O)N[C@H]3C(=O)N[C@H](C(=O)N[C@H](C(=O)O)c4cc(O)cc(O)c4-c4cc3ccc4O)[C@H](O)c3ccc(c(Cl)c3)Oc3cc2cc(c3O)Oc2ccc(cc2Cl)[C@H]1O [Vancomycin aglycon] | 65 ± 7.1 µM | 250 µM | > 500 µM | > 500 µM | > 500 µM | – | – | – | – | – |
| Teicoplanin [reference compound] | 18 ± 3.5 µM | 100 µM | > 500 µM | > 500 µM | > 500 µM | – | – | – | – | – |
